Converted amounts (≈) assume the structure as drawn.
What was measured:
[1] = target: Protein kinase C delta type (Homo sapiens, UniProt Q05655); assay: Inhibition of human PKCdelta by IMAP assay
[2] = target: Protein kinase C theta type (Homo sapiens, UniProt Q04759); assay: Inhibition of human PKCtheta by IMAP assay
[3] = target: Protein kinase C eta type (Homo sapiens, UniProt P24723); assay: Inhibition of human PKCeta by IMAP assay
[4] = target: Tyrosine-protein kinase Lck (Homo sapiens, UniProt P06239); assay: Inhibition of Lck
[5] = target: T1, Protein kinase C epsilon type (Homo sapiens, UniProt Q02156); assay: Inhibition of human PKCepsilon by IMAP assay
T1 sequence (Q02156 whole entry): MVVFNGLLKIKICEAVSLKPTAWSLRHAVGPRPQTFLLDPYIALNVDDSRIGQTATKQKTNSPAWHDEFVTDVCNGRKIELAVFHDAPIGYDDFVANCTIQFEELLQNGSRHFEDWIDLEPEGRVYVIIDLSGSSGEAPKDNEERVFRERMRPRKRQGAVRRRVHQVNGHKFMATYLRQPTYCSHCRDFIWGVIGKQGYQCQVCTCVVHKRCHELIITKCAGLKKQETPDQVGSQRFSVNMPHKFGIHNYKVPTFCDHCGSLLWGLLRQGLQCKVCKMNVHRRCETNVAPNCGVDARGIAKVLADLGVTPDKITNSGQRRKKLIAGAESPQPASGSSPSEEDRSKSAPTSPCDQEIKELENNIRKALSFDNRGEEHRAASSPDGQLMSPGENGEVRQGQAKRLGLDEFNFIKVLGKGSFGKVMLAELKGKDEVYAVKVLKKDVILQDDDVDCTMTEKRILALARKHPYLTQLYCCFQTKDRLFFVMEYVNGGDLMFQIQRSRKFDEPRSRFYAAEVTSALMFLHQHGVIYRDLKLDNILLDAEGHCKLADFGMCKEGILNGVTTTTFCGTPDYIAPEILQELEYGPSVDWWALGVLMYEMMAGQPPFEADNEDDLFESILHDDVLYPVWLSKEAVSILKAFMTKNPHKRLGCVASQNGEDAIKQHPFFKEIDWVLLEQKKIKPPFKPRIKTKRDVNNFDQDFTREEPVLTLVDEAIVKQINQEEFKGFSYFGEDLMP

[6] = Metabolic stability in rat liver microsomes assessed as half life; assay type: ADME, Microsome
[7] = Solubility at pH 7.4; assay type: physicochemical; settings: buffer
[8] = Membrane permeability by PAMPA; assay type: ADME; settings: read-out: permeability
T-cell [9] = assay: Blockade of anti-CD3 and anti-CD28 antibody-induced IL2 expression in wild type C57BL/6 mouse T cells after 20 to 24 hrs by ELISA; assay type: functional, cell-based; settings: C57BL/6, T-cell
[10] = Metabolic stability in human liver microsomes assessed as half life; assay type: ADME, Microsome
[11] = target: T2, Protein kinase C zeta type (Homo sapiens, UniProt Q05513); assay: Inhibition of human PKCzeta by IMAP assay
T2 sequence (Q05513 whole entry): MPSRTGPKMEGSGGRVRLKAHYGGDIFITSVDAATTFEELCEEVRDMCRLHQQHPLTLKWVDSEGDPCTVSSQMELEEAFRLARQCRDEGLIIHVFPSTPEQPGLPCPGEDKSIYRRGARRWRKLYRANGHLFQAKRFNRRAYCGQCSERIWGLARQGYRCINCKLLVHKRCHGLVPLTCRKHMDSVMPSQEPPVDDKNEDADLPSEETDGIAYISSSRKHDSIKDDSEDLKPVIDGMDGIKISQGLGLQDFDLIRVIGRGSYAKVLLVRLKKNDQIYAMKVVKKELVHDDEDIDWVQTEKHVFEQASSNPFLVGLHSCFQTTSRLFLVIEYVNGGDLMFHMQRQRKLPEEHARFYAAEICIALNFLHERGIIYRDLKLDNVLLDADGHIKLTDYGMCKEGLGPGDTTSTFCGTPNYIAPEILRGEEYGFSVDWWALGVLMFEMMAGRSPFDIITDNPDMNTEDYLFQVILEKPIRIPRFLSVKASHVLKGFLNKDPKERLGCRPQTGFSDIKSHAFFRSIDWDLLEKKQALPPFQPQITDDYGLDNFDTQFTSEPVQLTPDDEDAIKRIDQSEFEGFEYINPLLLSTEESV

[12] = Metabolic stability in dog liver microsomes assessed as half life; assay type: ADME, Canis lupus familiaris, Microsome
[13] = target: Protein kinase C beta type (Homo sapiens, UniProt P05771); assay: Inhibition of human PKCbeta by IMAP assay
Sequence of Protein kinase C beta type (P05771 whole entry): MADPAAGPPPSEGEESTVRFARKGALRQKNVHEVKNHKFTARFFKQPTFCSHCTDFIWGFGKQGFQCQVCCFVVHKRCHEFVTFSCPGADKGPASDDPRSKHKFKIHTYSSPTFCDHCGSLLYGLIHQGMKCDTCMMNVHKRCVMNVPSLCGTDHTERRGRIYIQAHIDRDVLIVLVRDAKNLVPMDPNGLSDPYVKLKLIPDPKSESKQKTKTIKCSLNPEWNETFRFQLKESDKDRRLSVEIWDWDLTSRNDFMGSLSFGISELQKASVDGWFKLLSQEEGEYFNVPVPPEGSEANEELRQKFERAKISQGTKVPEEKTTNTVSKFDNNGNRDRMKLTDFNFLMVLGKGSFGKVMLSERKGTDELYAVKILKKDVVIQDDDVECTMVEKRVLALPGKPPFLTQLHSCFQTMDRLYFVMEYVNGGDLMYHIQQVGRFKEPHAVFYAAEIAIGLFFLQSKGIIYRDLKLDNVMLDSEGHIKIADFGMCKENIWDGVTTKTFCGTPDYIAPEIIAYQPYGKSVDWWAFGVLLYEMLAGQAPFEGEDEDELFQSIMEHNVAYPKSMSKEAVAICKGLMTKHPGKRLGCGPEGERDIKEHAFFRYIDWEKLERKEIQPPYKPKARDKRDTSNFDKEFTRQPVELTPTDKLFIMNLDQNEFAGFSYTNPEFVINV

T-cell [14] = assay: Blockade of anti-CD3 and anti-CD28 antibody-induced IL2 expression in PKC theta knockout mouse T cells after 20 to 24 hrs by ELISA; assay type: functional, cell-based
[15] = target: Rho-associated protein kinase 1 (Homo sapiens, UniProt Q13464); assay: Inhibition of ROCK1
Sequence of Rho-associated protein kinase 1 (Q13464 whole entry): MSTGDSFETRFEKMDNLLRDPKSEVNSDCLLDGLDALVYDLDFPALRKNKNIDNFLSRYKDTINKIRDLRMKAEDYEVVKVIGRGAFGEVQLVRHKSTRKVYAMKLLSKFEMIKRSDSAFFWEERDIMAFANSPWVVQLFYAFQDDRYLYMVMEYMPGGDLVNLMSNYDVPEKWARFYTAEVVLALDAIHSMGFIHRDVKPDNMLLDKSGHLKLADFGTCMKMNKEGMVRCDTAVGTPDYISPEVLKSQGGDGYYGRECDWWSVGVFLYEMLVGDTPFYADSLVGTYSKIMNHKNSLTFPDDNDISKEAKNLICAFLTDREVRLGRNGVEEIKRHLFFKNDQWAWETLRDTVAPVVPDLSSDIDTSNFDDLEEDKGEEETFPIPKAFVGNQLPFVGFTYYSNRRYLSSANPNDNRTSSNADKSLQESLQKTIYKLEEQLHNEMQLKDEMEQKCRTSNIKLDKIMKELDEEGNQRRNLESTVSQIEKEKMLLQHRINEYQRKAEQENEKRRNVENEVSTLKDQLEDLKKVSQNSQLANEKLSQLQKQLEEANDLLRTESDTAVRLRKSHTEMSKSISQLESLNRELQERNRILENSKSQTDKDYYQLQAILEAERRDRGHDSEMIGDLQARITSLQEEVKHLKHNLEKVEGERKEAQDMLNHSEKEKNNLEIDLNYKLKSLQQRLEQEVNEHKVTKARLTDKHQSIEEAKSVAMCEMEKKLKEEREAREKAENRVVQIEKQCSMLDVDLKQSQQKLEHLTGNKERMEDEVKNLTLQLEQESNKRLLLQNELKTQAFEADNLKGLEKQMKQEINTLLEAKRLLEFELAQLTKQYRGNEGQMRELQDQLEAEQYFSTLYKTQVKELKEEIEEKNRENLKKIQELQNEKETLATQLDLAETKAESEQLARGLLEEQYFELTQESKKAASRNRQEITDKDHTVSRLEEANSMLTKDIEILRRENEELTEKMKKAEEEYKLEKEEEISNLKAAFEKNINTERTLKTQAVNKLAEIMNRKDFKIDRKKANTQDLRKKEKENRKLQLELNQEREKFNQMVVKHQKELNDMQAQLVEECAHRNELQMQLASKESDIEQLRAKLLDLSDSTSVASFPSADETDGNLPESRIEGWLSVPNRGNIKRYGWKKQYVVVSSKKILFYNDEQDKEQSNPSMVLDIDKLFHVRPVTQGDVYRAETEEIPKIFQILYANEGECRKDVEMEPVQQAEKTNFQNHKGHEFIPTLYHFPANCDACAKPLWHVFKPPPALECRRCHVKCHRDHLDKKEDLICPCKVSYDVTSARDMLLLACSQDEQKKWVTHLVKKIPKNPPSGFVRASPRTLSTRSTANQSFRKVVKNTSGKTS

[16] = target: MAP kinase-activated protein kinase 2 (Homo sapiens, UniProt P49137); assay: Inhibition of MK2
Sequence of MAP kinase-activated protein kinase 2 (P49137 whole entry): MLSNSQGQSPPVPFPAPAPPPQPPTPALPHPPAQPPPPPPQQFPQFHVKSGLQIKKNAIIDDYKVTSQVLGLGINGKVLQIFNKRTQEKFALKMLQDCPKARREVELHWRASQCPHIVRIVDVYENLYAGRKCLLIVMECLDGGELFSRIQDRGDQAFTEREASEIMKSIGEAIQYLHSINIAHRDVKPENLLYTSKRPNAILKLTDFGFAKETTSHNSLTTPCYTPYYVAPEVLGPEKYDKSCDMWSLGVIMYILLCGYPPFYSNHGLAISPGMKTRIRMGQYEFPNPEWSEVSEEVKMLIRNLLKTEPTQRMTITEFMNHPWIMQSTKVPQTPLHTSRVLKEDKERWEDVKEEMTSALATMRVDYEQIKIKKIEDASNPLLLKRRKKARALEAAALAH

[17] = Metabolic stability in mouse liver microsomes assessed as half life; assay type: ADME, Microsome
[18] = target: Tyrosine-protein kinase Lyn (Homo sapiens, UniProt P07948); assay: Inhibition of Lyn
Sequence of Tyrosine-protein kinase Lyn (P07948 whole entry): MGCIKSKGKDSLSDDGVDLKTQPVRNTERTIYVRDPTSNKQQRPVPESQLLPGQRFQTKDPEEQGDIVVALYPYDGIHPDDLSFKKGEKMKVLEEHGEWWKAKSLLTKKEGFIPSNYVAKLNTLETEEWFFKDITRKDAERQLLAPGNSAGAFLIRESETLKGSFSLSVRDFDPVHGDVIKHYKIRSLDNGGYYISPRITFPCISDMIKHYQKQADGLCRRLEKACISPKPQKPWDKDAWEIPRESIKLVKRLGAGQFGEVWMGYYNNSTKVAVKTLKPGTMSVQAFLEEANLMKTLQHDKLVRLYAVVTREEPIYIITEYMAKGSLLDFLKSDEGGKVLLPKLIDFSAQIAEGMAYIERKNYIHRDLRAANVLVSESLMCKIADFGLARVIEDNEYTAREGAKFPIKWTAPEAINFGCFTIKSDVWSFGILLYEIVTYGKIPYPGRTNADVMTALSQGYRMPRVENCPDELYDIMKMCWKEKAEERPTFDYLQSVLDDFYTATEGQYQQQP

[19] = Inhibition of PDGFR
[20] = Metabolic stability in monkey liver microsomes assessed as half life; assay type: ADME, Macaca mulatta, Microsome; settings: rhesus monkey
[21] = Inhibition of p38
[22] = Inhibition of IKK

Sequence of Protein kinase C theta type (Q04759 whole entry): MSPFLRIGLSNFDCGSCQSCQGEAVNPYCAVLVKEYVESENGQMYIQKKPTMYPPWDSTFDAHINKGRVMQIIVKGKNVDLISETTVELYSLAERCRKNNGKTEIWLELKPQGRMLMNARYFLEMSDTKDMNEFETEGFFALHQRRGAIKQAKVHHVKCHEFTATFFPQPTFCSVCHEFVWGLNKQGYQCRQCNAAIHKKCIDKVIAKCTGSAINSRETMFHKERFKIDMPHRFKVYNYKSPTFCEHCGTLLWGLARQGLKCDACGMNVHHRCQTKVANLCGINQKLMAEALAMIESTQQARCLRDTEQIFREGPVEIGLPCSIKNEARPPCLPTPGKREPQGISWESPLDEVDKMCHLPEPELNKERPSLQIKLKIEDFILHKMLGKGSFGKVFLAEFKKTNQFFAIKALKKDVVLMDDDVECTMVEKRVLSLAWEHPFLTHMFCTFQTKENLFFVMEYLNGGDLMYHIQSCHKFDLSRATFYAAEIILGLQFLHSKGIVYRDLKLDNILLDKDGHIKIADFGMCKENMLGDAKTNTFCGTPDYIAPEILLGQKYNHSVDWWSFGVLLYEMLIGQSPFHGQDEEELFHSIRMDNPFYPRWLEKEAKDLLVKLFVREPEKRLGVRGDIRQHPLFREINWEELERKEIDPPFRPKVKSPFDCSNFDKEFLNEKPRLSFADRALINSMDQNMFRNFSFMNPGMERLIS
Sequence of Protein kinase C delta type (Q05655 whole entry): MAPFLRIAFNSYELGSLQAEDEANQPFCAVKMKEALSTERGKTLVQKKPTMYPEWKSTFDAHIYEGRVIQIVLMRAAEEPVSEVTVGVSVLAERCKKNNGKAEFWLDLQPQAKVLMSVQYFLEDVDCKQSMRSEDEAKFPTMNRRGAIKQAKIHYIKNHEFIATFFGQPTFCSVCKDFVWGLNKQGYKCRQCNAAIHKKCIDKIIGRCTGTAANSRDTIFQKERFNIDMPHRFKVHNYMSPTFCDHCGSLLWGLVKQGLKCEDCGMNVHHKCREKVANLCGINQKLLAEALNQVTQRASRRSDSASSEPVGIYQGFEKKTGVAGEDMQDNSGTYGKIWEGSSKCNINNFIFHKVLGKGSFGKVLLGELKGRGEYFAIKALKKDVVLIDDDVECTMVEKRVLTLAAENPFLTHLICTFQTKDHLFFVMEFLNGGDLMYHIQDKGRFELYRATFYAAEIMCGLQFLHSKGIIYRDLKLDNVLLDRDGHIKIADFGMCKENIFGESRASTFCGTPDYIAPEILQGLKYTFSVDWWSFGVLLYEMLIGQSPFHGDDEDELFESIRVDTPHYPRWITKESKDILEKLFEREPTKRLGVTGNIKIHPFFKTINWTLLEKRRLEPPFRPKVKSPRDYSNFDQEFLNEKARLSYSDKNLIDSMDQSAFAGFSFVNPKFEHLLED
Sequence of Protein kinase C eta type (P24723 whole entry): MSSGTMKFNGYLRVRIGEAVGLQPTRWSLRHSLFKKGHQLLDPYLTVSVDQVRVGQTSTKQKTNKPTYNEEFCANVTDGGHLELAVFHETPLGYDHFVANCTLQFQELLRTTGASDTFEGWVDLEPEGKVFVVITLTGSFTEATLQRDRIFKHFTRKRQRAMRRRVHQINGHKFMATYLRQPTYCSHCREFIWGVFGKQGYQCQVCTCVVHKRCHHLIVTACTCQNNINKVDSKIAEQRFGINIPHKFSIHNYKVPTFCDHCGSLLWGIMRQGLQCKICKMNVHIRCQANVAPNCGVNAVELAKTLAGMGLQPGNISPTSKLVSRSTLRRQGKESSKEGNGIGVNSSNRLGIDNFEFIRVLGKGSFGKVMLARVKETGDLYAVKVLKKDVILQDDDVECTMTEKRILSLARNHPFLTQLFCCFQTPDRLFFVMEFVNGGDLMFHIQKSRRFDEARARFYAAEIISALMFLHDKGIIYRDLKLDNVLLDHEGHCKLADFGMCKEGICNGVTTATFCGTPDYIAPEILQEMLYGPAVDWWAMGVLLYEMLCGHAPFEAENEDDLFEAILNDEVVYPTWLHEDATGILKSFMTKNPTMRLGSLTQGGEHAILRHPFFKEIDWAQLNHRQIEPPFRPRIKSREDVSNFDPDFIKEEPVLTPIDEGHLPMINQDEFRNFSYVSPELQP

| Structure (SMILES) | IC50 [1] | IC50 [2] | other results |
| --- | --- | --- | --- |
| CN1CCN(CCOc2ccc(-c3cncc(C#N)c3Nc3cccc4[nH]ccc34)cc2)CC1 | 41 nM | 14 nM |  |
| Cc1c(Nc2c(C#N)cncc2-c2ccc(OCCN3CCCC3)cc2)ccc2[nH]ccc12 | 28 nM | 4.5 nM |  |
| COc1ccc(-c2cncc(C#N)c2-c2ccc3[nH]ccc3c2)cc1OC |  | 1700 nM |  |
| COc1ccccc1-c1cncc(C#N)c1Nc1ccc2[nH]ccc2c1C | 340 nM |  |  |
| COc1ccc(-c2cncc(C#N)c2Nc2cc3cc[nH]c3cc2C)cc1OC | 280 nM | 10.5 nM |  |
| COc1cccc(-c2cncc(C#N)c2Nc2ccc3[nH]ccc3c2C)c1 | 210 nM |  |  |
| COc1ccc(-c2cncc(C#N)c2Nc2ccc3c(ccn3C)c2C)cc1OC | 1400 nM | 260 nM |  |
| COc1ccc(-c2cncc(C#N)c2Nc2cc(C)c3[nH]ccc3c2)cc1OC |  | 120 nM |  |
| Cc1c(Nc2c(C#N)cncc2-c2ccc(OCCNCCN(C)C)cc2)ccc2[nH]ccc12 | 18 nM | 5.9 nM |  |
| COc1ccc(-c2cncc(C#N)c2Nc2ccc3[nH]ccc3c2C)cc1 | 85 nM | 5.6 nM |  |
| Cc1c(Nc2c(C#N)cncc2-c2ccc(OCCN3CCOCC3)cc2)ccc2[nH]ccc12 | 150 nM |  |  |
| CCc1c(Nc2c(C#N)cncc2-c2ccc(OC)c(OC)c2)ccc2[nH]ccc12 | 980 nM | 55 nM |  |
| CN1CCN(CCOc2ccc(-c3cncc(C#N)c3Nc3ccc4[nH]ccc4c3)cc2)CC1 | 160 nM |  |  |
| Cc1cc2[nH]ccc2cc1Nc1c(C#N)cncc1-c1ccc(OCCN2CCN(C)CC2)cc1 | 130 nM |  |  |
| COc1ccc(-c2cncc(C#N)c2Nc2ccc3[nH]ccc3c2OC)cc1OC | 350 nM |  |  |
| COc1ccc(-c2cncc(C#N)c2Nc2ccc3cc[nH]c3c2)cc1OC |  | 2300 nM |  |
| Cc1c(Nc2c(C#N)cncc2-c2ccc(OCCN3CCC(N4CCCC4)CC3)cc2)ccc2[nH]ccc12 | 30 nM |  |  |
| Cc1c(Nc2c(C#N)cncc2-c2ccc(OCCCN3CCN(C)CC3)cc2)ccc2[nH]ccc12 | 110 nM |  |  |
| COc1ccc(-c2cncc(C#N)c2N(C)c2ccc3[nH]ccc3c2)cc1OC | 2100 nM |  |  |
| Cc1c(Nc2c(C#N)cncc2-c2ccccc2)ccc2[nH]ccc12 | 63 nM |  |  |
| COc1ccc(-c2cncc(C#N)c2Nc2ccc3[nH]ccc3c2F)cc1OC | 69 nM | 5.3 nM |  |
| COc1ccc(-c2cncc(C#N)c2Nc2cccc3[nH]ccc23)cc1OC | 62 nM |  |  |
| COc1ccc(-c2cncc(C#N)c2Nc2ccc3[nH]ccc3c2C)cc1OC | 81 nM | 6.3 nM |  |
| Cc1c(Nc2c(C#N)cncc2-c2ccc(OCCN3CCN(CCO)CC3)cc2)ccc2[nH]ccc12 | 29 nM |  |  |
| Cc1c(Nc2c(C#N)cncc2-c2ccc(OCCN3CCN(C)CC3)cc2)ccc2[nH]ccc12 | 51 nM | 7.4 nM | IC50 [3]: 450 nM; IC50 [4]: > 10000 nM; IC50 [5]: 54 nM; half-life [6]: < 15 min; solubility [7]: 67 µg/mL (≈ 144 µM); Papp [8]: 0.28 ×10⁻⁶ cm/s; IC50 (T-cell [9]): 160 nM; half-life [10]: < 15 min; IC50 [11]: > 100000 nM; half-life [12]: < 15 min; IC50 [13]: 22000 nM; IC50 (T-cell [14]): > 15000 nM; IC50 [15]: > 10000 nM; IC50 [16]: > 10000 nM; half-life [17]: < 15 min; IC50 [18]: > 10000 nM; IC50 [19]: > 10000 nM; half-life [20]: < 15 min; IC50 [21]: > 10000 nM; IC50 [22]: > 10000 nM |
| COc1ccc(-c2cncc(C#N)c2Oc2ccc3[nH]ccc3c2)cc1OC |  | 1700 nM |  |

Source: ChEMBL document CHEMBL1136942, “Optimization of 5-phenyl-3-pyridinecarbonitriles as PKCtheta inhibitors” (Bioorg Med Chem Lett, 2009)
